The record followed here is US11229624B2, “FABP4 as a therapeutic target in skin diseases” (TICURE LTD., priority 2016, dated 2022).

For this experiment, the system named is IMQ-induced psoriasis in mice. In words: Imiquimod-induced psoriasis model in mice, PASI scoring of back skin inflammation. The experiment is classed as in vivo, Balb/c mice. The source says: As already explained, psoriasis is a chronic inflammatory skin disorder. It occurs when the immune system mistakes the skin cells as a pathogen, and sends out faulty signals that speed up the proliferation of skin cells. Imiquimod (IMQ) is a potent immune activator that induces and exacerbates psoriasis when applied topically. Daily application of IMQ on mouse back skin induces inflamed scaly skin lesions resembling plaque type psoriasis. IMQ-induced psoriasis in mice has been long used as a model for human psoriasis.
The efficacy of oral administration of a FABP4-inhibitor to treat psoriasis in the IMQ-induced model in mice was tested.
The test was carried out using Balb/c mice (Envigo RMS (Israel) Ltd), average (±SD) body weight at study initiation was 18.2±0.81 g. Animals were fed ad libitum a commercial rodent diet (Teklad Certified Global 18% Protein Diet, Harlan cat #2018SC). Animals had free access to sterilized and acidified drinking water (pH between 2.5 and 3.5).
The tests included six groups of 3-10 mice per group, as follows: • one naïve (no IMQ) group; • one Vehicle control group, the vehicle formulation being 10% 1-methyl-2-pyrrolidone and 5% Cremophor EL in water for injection (WFI); • one treated group that received Cortisone acetate as a positive control—one tablet (25 mg each, Rekah Pharm) was triturated with a mortar. The powder was dissolved in 2.5 ml WFI yielding 10 mg/ml. The compound was administrated per-os at 12.5 mg/kg BW (body weight) mouse of the compound once daily for six days starting the first day of IMQ application (Day 1); and • three treated groups that received BMS (i.e. Test Item) at three doses—5, 15 and 30 mg/kg. BMS powder (Cayman Chemical) was dissolved in ethanol to create a 30 mg/ml solution. This stock solution was diluted in the Vehicle to create three different concentrations 0.5, 1.5 and 3 mg/ml. A new aqueous solution was prepared in each day. BMS was administrated per-os once daily for six days starting the first day of IMQ application (Day 1).
IMQ-induction: A daily topical dose of 62.5 mg of commercially available IMQ cream (5%) (Aldara; 3M Pharmaceuticals) was applied to animals from all the groups except for the naïve group on the shaved back for six consecutive days, translated to a daily dose of 3.125 mg of the active compound.
Experiment conditions: All animals except for the naïve group received IMQ cream (Aldara™ 5% cream, #3 Pharmaceuticals) applied on the back skin daily for six consecutive days starting on Day 1 (˜60 mg/mouse). The Test Item, Vehicle and Cortisone acetate were administered per-os daily for 6 days. During the study morbidity and mortality, body weight (BW), clinical signs, and Psoriasis Area and Severity Index (PASI) scoring were performed and representative pictures were taken. The animals were sacrificed on Day 9.
Scoring was performed by a trained observer in a “blinded” way, i.e., being unaware of the treatment. To score the severity of inflammation of the back skin, the clinical PASI scoring was employed. Erythema, scaling, and thickening were scored independently on a scale from 0 to 4: 0, none; 1, slight; 2, moderate; 3, marked; 4, very marked. The cumulative score (erythema plus scaling plus thickening), PASI scoring, served as a measure of the severity of inflammation (scale 0-12).

The mark [1] stands for this setting: 15 mg/kg per-os once daily for six days.
[2] abbreviates: BMS treated groups (5, 15 and 30 mg/kg per-os), Day 7.

Molecules are shown by their SMILES.

For the molecule `CCc1c(-c2ccccc2)c(-c2ccccc2)nn1-c1ccccc1-c1cccc(OCC(=O)O)c1` [BMS, 2-[[2′-(5-ethyl-3,4-diphenyl-1H-pyrazol-1-yl)[1,1′-biphenyl]-3-yl]oxy]-acetic acid], under setting [1], the “erythema severity score, comparison of doses” value is recorded as “best results”; the “scaling severity score, comparison of doses” value is “best results”; the “skin thickness severity score, comparison of doses” value is recorded as “best results”. Further, for the setting “BMS treated groups (5, 15 and 30 mg/kg per-os once daily for six days), Day 7”, the “severity of skin inflammation (PASI scoring)” value is “significant amelioration”. Also, under setting [2], the erythema severity score result was “significant amelioration”, the scaling severity score result was “significant amelioration” and the “skin thickness severity score” value is reported as “significant amelioration”. Also, where the note is “middle dose 15 mg/kg per-os once daily for six days”, the “impact on the inflammation severity, comparison of doses” value was “highest impact”.
